{
  "source": "patent EP4467137A1",
  "about": "“TREATMENT OF FRONTOTEMPORAL DEMENTIA OR FRONTOTEMPORAL LOBAR DEMENTIA” (Universidad Autónoma de Madrid, priority 2023, dated 2024)",
  "key": {"TNF-α mRNA": {"system": "TNF-α mRNA", "assay": "qRT-PCR of TNFα in LPS-exposed BV2 cells", "format": "cell-based, mouse", "conditions": "10 and 30 µM, 24 h LPS", "method": "(§1) • Figure 1. Compound 1 reduces the inflammatory response against LPS in vitro. (A) Nitric oxide (NO) production in BV2 cells detected by DAF 24 h after LPS exposure and normalized by cell viability measured by MTT (n = 9). (B) qRT-PCR of TNFα (n = 9) in BV2 cells after 24 h LPS exposure. Sulforaphane (Sfn) was used as a positive control. […] Compound 1 decreases the inflammatory process 4 and 24 hours after LPS administration in vivo. Compound 1 (20 mg·kg^-1) daily was injected i.p. four days before the i.p. LPS (0.5 mg·kg^-1) administration. […] Compound 1 ameliorates the resolution of the inflammatory process triggered by LPS. […] (B) Locomotion activity measured by line crossings of an imaginary grid. […] Compound 1 reduced tau seeding in HEK-293 tau FRET biosensor measured by flow cytometer (C). […] Representative images of hyperphosphorylated tau intensity measured by AT8 and AT180 antibodies in three different regions of the hippocampus (GD, CA3 and CA1) (n = 11-12). (B) Quantification AT8 intensity, normalized to CA3 intensity of Sham animals. (C) Quantification of AT180 intensity, normalized to CA3 intensity of Sham animals (n = 9-12). […] Quantification of sarkosyl soluble (n = 10) (C) and insoluble species (D) using AT8 antibody (n = 10). Quantification of sarkosyl soluble (n = 10) (E) and insoluble species (F) using AT180 antibody (n = 10). […]"}, "[1]": {"system": "primary rat glial cultures", "assay": "Anti-neuroinflammatory screening in LPS-treated primary glial cultures (Griess, normalized by MTT)", "format": "cell-based", "conditions": "% reduction of nitrites, LPS alone = 100 % inflammation, read-out: Anti-neuro inflammatory effect at 3 µM (%)", "method": "Screening for anti-inflammatory properties in primary rat glial cultures was performed according to the protocol described previously [Gameiro, Isabel et al. \"Discovery of the first dual GSK3β inhibitor/Nrf2 inducer. A new multitarget therapeutic strategy for Alzheimer's disease.\" Scientific reports vol. 7 45701. 31 Mar. 2017, doi:10.1038/srep45701]. All compounds were evaluated at the single concentration of 3 µM. Neuroinflammation was quantified as the value of released […], measured by the Griess method, normalized by the number of viable cells measured by the MTT method [Mosmann, T. \"Rapid colorimetric assay for cellular growth and survival: application to proliferation and cytotoxicity assays.\" Journal of immunological methods vol. 65, 1-2 (1983): 55-63. doi:10.1016/0022-1759(83)90303-4]. LPS alone was considered 100 % inflammation.\nBased on the results obtained (Table 2), Compound 1 was selected for further in vitro and in vivo studies as it was endowed with the best anti-neuroinflammatory activity. Table 2: Comparative in vitro results. Cell viability/toxicity: effect of the compound per se on cell viability of […] cells measured with the MTT method. Anti-neuroinflammatory effect: % Reduction of nitrites in primary rat glial cultures. PAMPA-BBB: In vitro blood-brain barrier permeation assay, permeation rate Pe (10-6 cm.s-1). NRF2, CD (µM): Concentration of compound that doubles de activation of NRF2. ORAC: Oxygen radical absorbance capacity. LOX-5: lipoxygenase-5."}, "[2]": {"system": "HEK-293 FRET biosensor containing tau repeating domains", "assay": "Tau seeding assay in HEK-293 tau FRET biosensor cells", "format": "cell-based", "conditions": "Tg4510 mouse brain homogenate as aggregant stimulus; increasing concentrations", "method": "as §1"}, "BV2 cells": {"system": "BV2 cells", "assay": "Nitric oxide detection with DAF in LPS-exposed BV2 cells", "format": "cell-based, mouse", "conditions": "24 h LPS", "method": "as §1"}},
  "data": [
    {"smiles": "COc1ccc2c(c1)CC(c1c[nH]c3ccc(OC)cc13)N2", "note": "(centres unmarked) [Compound 1, 5-Methoxy-3-(5-methoxyindolin-2-yl)-1H-indole]", "values": [
      {"measurement": "TNF-α mRNA", "setting": "TNF-α mRNA", "result": "reduced"},
      {"measurement": "inhibition at 3 µM", "setting": "[1]", "result": "100 ± 6.6", "unit": "%"},
      {"measurement": "tau seeding (integrated FRET density)", "setting": "[2]", "result": "reduce tau seeding ability following a concentration dependent effect"},
      {"measurement": "NO production", "setting": "BV2 cells; 10 µM, BV2 cells", "result": "reduced to basal levels"},
      {"measurement": "nitric oxide (NO) in BV2 cells exposed to LPS", "setting": "BV2 cells; over the concentrations tested", "result": "concentration-dependent reduction"}
    ]}
  ]
}
